Assay results published in patent US10750743B2, “Pyridazinone herbicides” (E.I. DU PONT DE NEMOURS AND COMPANY, priority 2015, dated 2020).

Experiments:
Format in all cases: in vivo
[1] = test system: barnyardgrass (Echinochloa crus-galli); test: Test A preemergence, directed soil spray, visual injury rating; settings: 0 is no effect, 100 is complete control
Summary of the method: (§1)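 Compounds in a surfactant-containing solvent were applied as a directed soil spray preemergence, or postemergence to plants 2-10 cm tall at the one- to two-leaf stage, in loam-sand blend. After about 10 d in the greenhouse, injury was rated visually against untreated controls on a 0-100 scale (100 = complete control).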

[2] = test system: foxtail, giant (giant foxtail, Setaria faberii); test: as above; settings: 0 is no effect, 100 is complete control
Summary of the method: as §1

kochia (Kochia scoparia) [3] = test: as above; settings: 0 is no effect, 100 is complete control
Summary of the method: as §1

[4] = test system: pigweed (Amaranthus retroflexus); test: as above; settings: 0 is no effect, 100 is complete control
Summary of the method: as §1

[5] = test system: ragweed (common ragweed, Ambrosia elatior); test: as above; settings: 0 is no effect, 100 is complete control
Summary of the method: as §1

[6] = test system: ryegrass, It. (Italian ryegrass, Lolium multiflorum); test: as above; settings: 0 is no effect, 100 is complete control
Summary of the method: as §1

[7] = test system: barnyardgrass (Echinochloa crus-galli); test: Test B flooded paddy test, visual rating; settings: Flood, 250 g ai/ha, applied to paddy water, rated after 13 to 15 d
Summary of the method: (§2)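 Plants grown to the 2-leaf stage. At treatment, pots were flooded to 3 cm above the soil, compound was applied directly to the paddy water, and that depth was held throughout. After 13 to 15 d in the greenhouse, response was rated visually against controls on a 0 (no effect) to 100 (complete control) scale.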

[8] = test system: ducksalad (Heteranthera limosa); test: Test B flooded paddy test, visual rating; settings: Flood, 250 g ai/ha, applied to paddy water, rated after 13 to 15 d
Summary of the method: as §2

rice (Oryza sativa) = test: Test B flooded paddy test, visual rating; settings: Flood, 250 g ai/ha, applied to paddy water, rated after 13 to 15 d
Summary of the method: as §2

[9] = test system: sedge, umbrella (small-flower umbrella sedge, Cyperus difformis); test: Test B flooded paddy test, visual rating; settings: Flood, 250 g ai/ha, applied to paddy water, rated after 13 to 15 d
Summary of the method: as §2

[10] = test system: barnyardgrass (Echinochloa crus-galli); test: Test A postemergence application, visual injury rating; settings: 0 to 100 scale, 0 no effect, 100 complete control
Summary of the method: as §1

[11] = test system: blackgrass (Alopecurus myosuroides); test: as above; settings: 0 to 100 scale, 0 no effect, 100 complete control
Summary of the method: as §1

corn (Zea mays) = test: as above; settings: 0 to 100 scale, 0 no effect, 100 complete control
Summary of the method: as §1

[12] = test system: foxtail, giant (giant foxtail, Setaria faberii); test: as above; settings: 0 to 100 scale, 0 no effect, 100 complete control
Summary of the method: as §1

[13] = test system: galium (catchweed bedstraw, Galium aparine); test: as above; settings: 0 to 100 scale, 0 no effect, 100 complete control
Summary of the method: as §1

kochia (Kochia scoparia) [14] = test: as above; settings: 0 to 100 scale, 0 no effect, 100 complete control
Summary of the method: as §1

[15] = test system: pigweed (Amaranthus retroflexus); test: as above; settings: 0 to 100 scale, 0 no effect, 100 complete control
Summary of the method: as §1

[16] = test system: ragweed (common ragweed, Ambrosia elatior); test: as above; settings: 0 to 100 scale, 0 no effect, 100 complete control
Summary of the method: as §1

[17] = test system: ryegrass, It. (Italian ryegrass, Lolium multiflorum); test: as above; settings: 0 to 100 scale, 0 no effect, 100 complete control
Summary of the method: as §1

[18] = test system: wheat (Triticum aestivum); test: as above; settings: 0 to 100 scale, 0 no effect, 100 complete control
Summary of the method: as §1

SMILES | Plant response rating (0 to 100 scale), Barnyardgrass ([1]; 125 g ai/ha) | Plant response rating (0 to 100 scale), Foxtail, Giant ([2]; 125 g ai/ha) | Plant response rating (0 to 100 scale), Kochia (kochia (Kochia scoparia) [3]; 125 g ai/ha) | Plant response rating (0 to 100 scale), Pigweed ([4]; 125 g ai/ha) | Plant response rating (0 to 100 scale), Ragweed ([5]; 125 g ai/ha) | Plant response rating (0 to 100 scale), Ryegrass, It. ([6]; 125 g ai/ha) | Barnyardgrass plant response rating (0 to 100 scale, 0 is no effect, 100 is complete control) [7] | Ducksalad plant response rating (0 to 100 scale, 0 is no effect, 100 is complete control) [8] | Rice plant response rating (0 to 100 scale, 0 is no effect, 100 is complete control) (rice (Oryza sativa)) | Sedge, Umbrella plant response rating (0 to 100 scale, 0 is no effect, 100 is complete control) [9] | Barnyardgrass plant response rating ([10]; 125 g ai/ha) | Blackgrass plant response rating ([11]; 125 g ai/ha) | Corn plant response rating (corn (Zea mays); 125 g ai/ha) | Foxtail, Giant plant response rating ([12]; 125 g ai/ha) | Galium plant response rating ([13]; 125 g ai/ha) | Kochia plant response rating (kochia (Kochia scoparia) [14]; 125 g ai/ha) | Pigweed plant response rating ([15]; 125 g ai/ha) | Ragweed plant response rating ([16]; 125 g ai/ha) | Ryegrass, It. plant response rating ([17]; 125 g ai/ha) | Wheat plant response rating ([18]; 125 g ai/ha) | also measured
COC(=O)Oc1c(C)nn(C)c(=O)c1-c1cccc2cc(C)oc12 [Compound 28] | 0 | 0 | 20 | 0 | 30 | 70 | 0 | 0 | 0 | 0 | 10 | 30 | 0 | 20 | 80 | 40 | 40 | 60 | 60 | 0 | Plant response rating (0 to 100 scale), Barnyardgrass ([1]; 31 g ai/ha): 0; Plant response rating (0 to 100 scale), Foxtail, Giant ([2]; 31 g ai/ha): 0; Plant response rating (0 to 100 scale), Kochia (kochia (Kochia scoparia) [3]; 31 g ai/ha): 0; Plant response rating (0 to 100 scale), Pigweed ([4]; 31 g ai/ha): 0; Plant response rating (0 to 100 scale), Ragweed ([5]; 31 g ai/ha): 0; Plant response rating (0 to 100 scale), Ryegrass, It. ([6]; 31 g ai/ha): 20; Barnyardgrass plant response rating ([10]; 31 g ai/ha): 0; Blackgrass plant response rating ([11]; 31 g ai/ha): 0; Corn plant response rating (corn (Zea mays); 31 g ai/ha): 0; Foxtail, Giant plant response rating ([12]; 31 g ai/ha): 0; Galium plant response rating ([13]; 31 g ai/ha): 40; Kochia plant response rating (kochia (Kochia scoparia) [14]; 31 g ai/ha): 0; Pigweed plant response rating ([15]; 31 g ai/ha): 10; Ragweed plant response rating ([16]; 31 g ai/ha): 20; Ryegrass, It. plant response rating ([17]; 31 g ai/ha): 30; Wheat plant response rating ([18]; 31 g ai/ha): 0
CCC(=O)Oc1c(C)nn(C)c(=O)c1-c1c(C)ccc2sccc12 [Compound 31] | 10 | 10 | 20 | 90 | 20 | 90 | 0 | 0 | 0 | 0 | 10 | 50 | 20 | 10 | 90 | 90 | 90 | 70 | 100 | 20 | Plant response rating (0 to 100 scale), Barnyardgrass ([1]; 500 g ai/ha): 90; Plant response rating (0 to 100 scale), Foxtail, Giant ([2]; 500 g ai/ha): 90; Plant response rating (0 to 100 scale), Kochia (kochia (Kochia scoparia) [3]; 500 g ai/ha): 90; Plant response rating (0 to 100 scale), Pigweed ([4]; 500 g ai/ha): 100; Plant response rating (0 to 100 scale), Ragweed ([5]; 500 g ai/ha): 90; Plant response rating (0 to 100 scale), Ryegrass, It. ([6]; 500 g ai/ha): 100; Barnyardgrass plant response rating ([10]; 500 g ai/ha): 60; Blackgrass plant response rating ([11]; 500 g ai/ha): 60; Corn plant response rating (corn (Zea mays); 500 g ai/ha): 40; Foxtail, Giant plant response rating ([12]; 500 g ai/ha): 80; Galium plant response rating ([13]; 500 g ai/ha): 100; Kochia plant response rating (kochia (Kochia scoparia) [14]; 500 g ai/ha): 100; Pigweed plant response rating ([15]; 500 g ai/ha): 90; Ragweed plant response rating ([16]; 500 g ai/ha): 80; Ryegrass, It. plant response rating ([17]; 500 g ai/ha): 100; Wheat plant response rating ([18]; 500 g ai/ha): 30
Cc1nn(C)c(=O)c(-c2cccc3sccc23)c1O [Compound 32] | 20 | 10 | 30 | 40 | 0 | 70 | 0 | 40 | 0 | 50 | 0 | 0 | 0 | 0 | 40 | 20 | 30 | 0 | 70 | 0 | Plant response rating (0 to 100 scale), Barnyardgrass ([1]; 500 g ai/ha): 40; Plant response rating (0 to 100 scale), Foxtail, Giant ([2]; 500 g ai/ha): 50; Plant response rating (0 to 100 scale), Kochia (kochia (Kochia scoparia) [3]; 500 g ai/ha): 40; Plant response rating (0 to 100 scale), Pigweed ([4]; 500 g ai/ha): 100; Plant response rating (0 to 100 scale), Ragweed ([5]; 500 g ai/ha): 80; Plant response rating (0 to 100 scale), Ryegrass, It. ([6]; 500 g ai/ha): 100; Barnyardgrass plant response rating ([10]; 500 g ai/ha): 50; Blackgrass plant response rating ([11]; 500 g ai/ha): 30; Corn plant response rating (corn (Zea mays); 500 g ai/ha): 0; Foxtail, Giant plant response rating ([12]; 500 g ai/ha): 40; Galium plant response rating ([13]; 500 g ai/ha): 80; Kochia plant response rating (kochia (Kochia scoparia) [14]; 500 g ai/ha): 70; Pigweed plant response rating ([15]; 500 g ai/ha): 30; Ragweed plant response rating ([16]; 500 g ai/ha): 40; Ryegrass, It. plant response rating ([17]; 500 g ai/ha): 90; Wheat plant response rating ([18]; 500 g ai/ha): 20
